According to patent publication US20230159436A1, “APPLICATIONS OF AMIDE ANALOGS OF TRITERPENES IN CURES OF CANCER AND OTHER DISEASES” (Pacific Arrow Limited, priority 2021, published 2023):

Legend:
U2OS = assay: MTT assay, bone (U2OS); format: cell-based
Description: (§1) Cells. HTB-9 (bladder), HeLa-S3 (cervix), DU145 (prostate), H460 (lung), MCF-7 (breast), K562 (leukemia), HCT116 (colon), HepG2 (liver), U2OS (bone), T98G (brain), SK-MEL-5 (Skin) and OVCAR 3, ES2 (ovary), Pancreas (Capan), Mouth (KB), Kidney (A498).
(§2) MTT Assay. The procedure for MTT assay followed the method described by Carmichael et al. (1987) with modifications. The cells were seeded into a 96-well plate at for 24 hours before drug-treatment. The cells were then exposed to the drugs for 48, 72, or 96 hours. After the drug-treatment, MTT (0.5 mg/mL) was added to cultures and incubated for an hour. The formazan (product of the reduction of tetrazolium by viable cells) formed and was dissolved with DMSO and the O.D. at 490 nm, and was measured by an ELISA reader. The MTT level of the cells before drug-treatment was also measured (T0). The % cell-growth (% G) is calculated as: % G=(TD−T0/TC−T0)×100(1), where TC or TD represents O.D. readings of control or drug-treated cells.
(§3) When T0>TD, then the cytotoxicity (LC) expressed as % of the control is calculated as: % LC=(TD−T0/T0)×100(2).

HTB-9 = assay: MTT assay, bladder (HTB-9); format: cell-based
Description: as §1, §2, §3

HCT116 = assay: MTT assay, colon (HCT116); format: cell-based
Description: as §1, §2, §3

DU145 = assay: MTT assay, prostate (DU145); format: cell-based
Description: as §1, §2, §3

SK-Mel-5 = assay: MTT assay, skin (SK-Mel-5); format: cell-based
Description: as §1, §2, §3

KB cells = assay: MTT assay, mouth (KB); format: cell-based
Description: as §1, §2, §3

A498 = assay: MTT assay, kidney (A498); format: cell-based
Description: as §1, §2, §3

HepG2 = assay: MTT assay, liver (HepG2); format: cell-based
Description: as §1, §2, §3

K562 = assay: MTT assay, leukemia (K562); format: cell-based, human
Description: as §1, §2, §3

HeLa = assay: MTT assay, cervix (HeLa); format: cell-based
Description: as §1, §2, §3

Swiss3T3 cells = assay: Cytotoxicity determination in Swiss3T3 normal fibroblast; format: cell-based; details: mouse normal fibroblast; preliminary results
Description: as §2

[1] = Pharmacokinetic (PK) study: blood from cutting tail; format: in vivo, mice; details: IP 100 mg/kg, estimated
Description: Pharmacokinetic (PK) Study: Blood from Cutting Tail • Method: • Drug-Treatment: • Mice: CD-1 female mice (6-7 weeks, 23-25 g) • mice were injected (IP) with Test drug sample (10 mg/ml, in […] at a dose of 100 mg/kg. • Blood was obtained from a mouse by cut-tail at 0.5, 2 and 4 hours after drug treatments. • At 24 hours after the drug treatment, mice were anesthetized with isoflurane and blood was obtained with cardiac puncture. Animals were then euthanized by cervical dislocation. • Plasma Isolation: • Blood (50-100 ul) was centrifuged (2000 g, 15 minutes). Plasma was collected from the top layer. • 1 volume of plasma was mixed with 3 volume of acetonitrile/0.005% TFA. Mixture was stored in refrigerator overnight. • Sample was centrifuged (16000 g,10 minutes). Supernatant (called Plasma in 75% AN/TFA soluble fractions) was collected and subjected to HPLC analysis. • HPLC Analysis Conditions: • Column: C18 μBondapak • Solvent: 60% acetonitrile/0.005% TFA (Trifluoroacetic acid) • Gradient: isocratic • Flow rate and run time: 1 ml/min for 30 minutes • Detection wavelength: 207 nm • O.D. range: 0.05 full scale • Calculation: • Standard cures of Test Drug is constructed (Area/3000K=1 ug Test Drug) • Area of Test Drug Peak from Sample is Recorded • Amount of Test Drug was calculated according to standard cures.

K562 cells [2] = assay: Inhibition of leukemia K562 cells growth (cell count); format: cell-based, human
Description: Method: • 1. Cells: Human leukemia cells K562 in RPMI1640 medium. • 2. Drug: Tig-S (1000× stock solution in DMSO). • 3. Start cells concentration: 50×10K per ml (500000/ml). • 4. Cells were cultured with or without drug for total of four days. • 5. Cell number is doubled after 2 days of incubation. Fresh medium (equal volume, with or without drug) was then added to culture. • 6. Cells were counted every day.

K562 cells [3] = assay: Inhibition of cell cycling (flow cytometry); format: cell-based, human; details: K562, three days, 0-20 ug/ml
Description: Experiment 31: Inhibition of Cell Cycling • 1. Method: Cells: Human leukemia cells K562 cultured in RPMI1640 medium. • 2. Drug: compound from present application or Tig-S (1000× stock solution in DMSO). • 3. Start cells concentration: 500000/ml. • 4. Cells were cultured with drug (0-20 ug/ml) for total of three days. • 5. Cells were harvested by centrifugation (136×g, 6 minutes); fixed with 70% ethanol and kept in −20 C before staining. • 6. Staining: Fixed cells were stained with Propidium iodide/RNase A/0.1% Triton X-100 in PBS. • 7. Flow Cytometry Analysis was performed in Baylor Core Facility with a LSRII instrument. • 8. Analysis: Single cell was gated and cell count—FL2-Area histogram were plotted. • 9. Cell distribution in different cell-cycle phases (G0/G1, S, G2/M) was analyzed.

IC50 of bone (U2OS) (U2OS) [µg/mL]	IC50 of colon (HCT116) (HCT116) [µg/mL]	IC50 of prostate (DU145) (DU145) [µg/mL]	IC50 of skin (SK-Mel-5) (SK-Mel-5) [µg/mL]	IC50 of mouth (KB) (KB cells) [µg/mL]	IC50 of liver (HepG2) (HepG2) [µg/mL]	IC50 of leukemia (K562) (K562) [µg/mL]	IC50 of cervix (HeLa) (HeLa) [µg/mL]	half-life [1]	SMILES	IC50 of bladder (HTB-9) (HTB-9) [µg/mL]	IC50 of kidney (A498) (A498) [µg/mL]	IC50 in SW3T3 cells (Swiss3T3 cells)	No grow (IC100) (K562 cells [2]; beginning on day 2) [µg/mL]	IC50, inhibition of Leukemia K562 cells growth (K562 cells [2]; cell count, up to four days)	effect on cell cycle (K562 cells [3])
4.5	5.2	3.6	5.1	3	6	2	5	about one	CC=C(C)C(=O)OCC1(C)C(O)CCC2(C)C1CCC1(C)C2CC=C2C3CC(C)(C)C(O)C(O)C3(COC(=O)C(C)=CC)C(O)CC21C (stereo not drawn) [Tig-R, 24,28-O-Tigloyl-3β,16α,21β,22α,24β,28-hexahydroxyolean-12-ene]	2.5	3.5	above 20 ug/ml	–	–	–
–	–	–	–	–	–	–	–	–	CC=C(C)C(=O)OCC1(C)C(O)CCC2(C)C1CCC1(C)C2CC=C2C3CC(C)(C)C(OC(=O)C(C)=CC)C(O)C3(CO)C(O)CC21C (stereo not drawn) [Tig-S]	–	–	–	≥ 2.5	about 0.6 ug/ml	arrested in the S-phase
